For this assay, the target named is T1, human NPC1L1 (Homo sapiens, UniProt Q9UHC9).
T1 construct: expressed in transfected cells
T1 sequence (Q9UHC9 22-1359): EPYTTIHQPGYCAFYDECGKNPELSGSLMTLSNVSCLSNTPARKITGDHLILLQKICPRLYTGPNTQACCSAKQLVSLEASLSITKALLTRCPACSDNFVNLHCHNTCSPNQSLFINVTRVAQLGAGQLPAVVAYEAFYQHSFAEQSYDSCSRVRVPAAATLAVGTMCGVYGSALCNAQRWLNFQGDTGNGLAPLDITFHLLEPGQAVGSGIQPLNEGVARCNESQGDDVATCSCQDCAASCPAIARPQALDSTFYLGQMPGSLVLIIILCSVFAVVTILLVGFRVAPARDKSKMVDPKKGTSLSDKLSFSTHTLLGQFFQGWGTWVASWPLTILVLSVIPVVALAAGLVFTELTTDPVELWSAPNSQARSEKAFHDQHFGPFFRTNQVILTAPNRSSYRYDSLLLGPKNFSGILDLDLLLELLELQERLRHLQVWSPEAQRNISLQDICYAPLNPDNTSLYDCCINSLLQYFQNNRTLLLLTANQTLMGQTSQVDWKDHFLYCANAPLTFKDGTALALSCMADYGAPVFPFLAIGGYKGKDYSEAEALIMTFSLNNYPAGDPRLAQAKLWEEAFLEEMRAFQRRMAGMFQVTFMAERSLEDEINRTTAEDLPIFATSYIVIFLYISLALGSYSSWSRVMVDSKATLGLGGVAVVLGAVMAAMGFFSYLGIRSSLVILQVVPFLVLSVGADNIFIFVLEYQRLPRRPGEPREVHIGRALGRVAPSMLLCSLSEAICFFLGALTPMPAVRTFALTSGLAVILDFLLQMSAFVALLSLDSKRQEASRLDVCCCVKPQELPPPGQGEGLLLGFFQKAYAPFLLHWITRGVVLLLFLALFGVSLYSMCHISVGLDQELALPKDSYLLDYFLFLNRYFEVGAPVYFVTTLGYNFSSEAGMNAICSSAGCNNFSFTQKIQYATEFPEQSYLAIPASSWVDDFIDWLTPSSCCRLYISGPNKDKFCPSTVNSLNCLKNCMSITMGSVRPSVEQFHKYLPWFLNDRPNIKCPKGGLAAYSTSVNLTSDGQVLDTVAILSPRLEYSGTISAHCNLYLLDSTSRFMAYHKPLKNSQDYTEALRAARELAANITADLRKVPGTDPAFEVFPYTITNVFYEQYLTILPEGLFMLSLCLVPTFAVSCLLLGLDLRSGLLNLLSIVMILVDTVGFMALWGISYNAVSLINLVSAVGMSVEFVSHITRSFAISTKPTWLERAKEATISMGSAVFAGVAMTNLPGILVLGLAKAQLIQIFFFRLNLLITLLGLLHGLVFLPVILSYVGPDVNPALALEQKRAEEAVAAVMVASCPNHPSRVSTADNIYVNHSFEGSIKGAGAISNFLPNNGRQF
Nature of the assay: In vitro [3H]cholesterol uptake assay in hNPC1L1/MDCKII cells. The following applies: 1 h, read-out: IC50, cholesterol uptake inhibition. Type of assay: cell-based. On the procedure: Medium A contained DMEM plus 100 units/mL penicillin and 100 μg/mL streptomycin supplemented with 5% lipoprotein-deficient serum (density > 1.21 g/mL, prepared from FCS by ultracentrifugation). Cholesterol Replenishing Medium (Medium B) was prepared according to the modified method reported by Field et al.. In brief, 0.25 mM oleic acid, 50 μM free cholesterol, 10 μM compactin, 50 μM mevalonate, 5 mM Na-taurocholate (Sigma–Aldrich, Germany), and [^3H]cholesterol (0.18 μCi/mL medium, [1,2–3H(N)] cholesterol, 1 mCi/mL (ARC Inc., USA)) in Medium A were mixed and sonicated. Following the micellar formation, compounds 1, 5, 6, 5/6 (70:30), and 6/5 (85:15) (73 mM stock solution in DMSO) were added to Medium B and vortexed to obtain the final concentrations (10, 30, 60, 90, 120, 150, 200 μM).
MDCKII wildtype and hNPC1L1/MDCKII cells were seeded in 24-well plates at a density of 5 × 10^5 cells/mL medium (500 μL medium/well) in Medium A 24 h before the treatment. Cells were washed once with PBS and incubated in Medium B (500 μL medium/well) containing micelles and tested compounds in indicated concentrations for 1 h. Following the incubation, the medium was removed and cells were washed three times with ice-cold 0.2% free fatty acid-free BSA. Cells were lysed and radioactivity in the lysate (100 μL) was determined by liquid scintillation counting. Protein concentrations of the lysates were determined with the DC Protein Assay (Bio-Rad, USA). The results were calculated as cpm/mg protein and expressed as percentage of inhibition compared to untreated cells. Each concentration was tested in duplicate in three independent experiments.

Each structure is given as a SMILES string.

For `O=C1[C@H](NCC(O)c2ccc(F)cc2)[C@@H](c2ccc(O)cc2)N1c1ccc(F)cc1` (stereo partly drawn) [6/5 (85:15), (3R,4R)-3-[(2S/R)-2-(4-fluorophenyl)-2-hydroxyethylamino]-1-(4-fluorophenyl)-4-(4-hydroxyphenyl)azetidin-2-one], the IC50 turned out to be 71 µM.
